Drawing on the PolyMetriX glass transition set, this text covers glass transition temperature for 57 compounds.

The structures appear in SMILES notation.

Regarding `*C(=O)Nc1c(C)cc(C)c(NC(=O)c2ccc3c(c2)C(=O)N(c2c(C)cc(C)c(N4C(=O)c5ccc(*)cc5C4=O)c2C)C3=O)c1C` (repeat unit), the glass transition temperature was 288.00 °C.
`*C(=O)Nc1ccc(-c2ccc(NC(=O)c3ccc4c(c3)C(=O)N(c3c(C)cc(C)c(N5C(=O)c6ccc(*)cc6C5=O)c3C)C4=O)cc2C)c(C)c1` (repeat unit) registered a glass transition temperature of 259.00 °C.
Then `*CCCCCCCCCCOC(=O)Nc1ccc(C)c(NC(=O)O*)c1` (repeat unit), with 18.00 °C.
In the case of `*CCCCCCCCCOC(=O)Nc1ccc(C)c(NC(=O)O*)c1` (repeat unit), the glass transition temperature is 62.00 °C.
On to `*CCCCCCCOC(=O)Nc1ccc(C)c(NC(=O)O*)c1` (repeat unit), for which the glass transition temperature was 61.00 °C.
Then `*CCCCCCOC(=O)Nc1ccc(C)c(NC(=O)OCCCCCCOc2ccc(-c3ccc(O*)cc3)cc2)c1` (repeat unit), with 87.00 °C; and `*CCCCCOC(=O)Nc1ccc(C)c(NC(=O)O*)c1` (repeat unit), with 52.00 °C; and `*CCCCCOC(=O)c1ccccc1C(=O)[O][Cd][O]C(=O)c1ccccc1C(=O)OCCCCCOC(=O)Nc1ccc(C)c(NC(=O)O*)c1` (repeat unit), with 2.30 °C.
Then `*CCCCOC(=O)Nc1ccc(C)c(NC(=O)OCCCCn2c3ccccc3c3cc(/C=C(\C#N)C(=O)OCCCCCCOC(=O)/C(C#N)=C/c4ccc5c(c4)c4ccccc4n5*)ccc32)c1` (repeat unit), with 117.00 °C; and `*CCCNC(=O)C(NC(=O)C(Cc1ccccc1)NC(=O)CCCCCCCCC(=O)NC(Cc1ccccc1)C(=O)NC(C(=O)NCCCOCCOCCO*)C(C)C)C(C)C` (repeat unit), with 66.00 °C; and `*CCCNC(=O)CNC(=O)C(NC(=O)C(Cc1ccccc1)NC(=O)CCCCCCCCC(=O)NC(Cc1ccccc1)C(=O)NC(C(=O)NCC(=O)NCCCOCCOCCO*)C(C)C)C(C)C` (repeat unit), with 58.00 °C.
On to `*CCCOC(=O)Nc1cc(NC(=O)O*)ccc1C` (repeat unit), for which the glass transition temperature was determined as 6.00 °C.
Consider `*CCN(CCOC(=O)NCC1(C)CC(NC(=O)O*)CC(C)(C)C1)c1ccc(/N=N/c2ccc(C#N)cc2)cc1` (repeat unit), for which the glass transition temperature is 136.00 °C.
Then `*CCN(CCOC(=O)Nc1ccc(C)c(NC(=O)O*)c1)c1ccc(-c2nc3ccc([N+](=O)[O-])cc3o2)cc1` (repeat unit), with 156.00 °C; and `*CCN(CCOC(=O)Nc1ccc(C)c(NC(=O)O*)c1)c1ccc(/N=N/c2ccc([N+](=O)[O-])cc2)cc1` (repeat unit), with 144.00 °C; and `*CCN(CCOC(=O)Nc1ccc(C)c(NC(=O)O*)c1)c1ccc(C(C#N)=C(C#N)C#N)cc1` (repeat unit), with 125.00 °C.
For `*CCN(CCOC(=O)Nc1ccc(C)c(NC(=O)O*)c1)c1ccccc1` (repeat unit), the glass transition temperature came out at 31.90 °C.
`*CCN(CCOC(=O)Nc1cccc(NC(=O)O*)c1C)c1ccc(/C=C/c2ccc([N+](=O)[O-])cc2)cc1` (repeat unit) gave a glass transition temperature of 123.00 °C.
Compound `*CCOC(=O)NCC1(C)CC(NC(=O)O*)CC(C)(C)C1` (repeat unit) gave a glass transition temperature of 84.00 °C.
Next, `*CCOC(=O)Nc1ccc(C)c(NC(=O)OCCOc2cc([N+](=O)[O-])ccc2/N=N/c2cn(*)c3ccccc23)c1` (repeat unit): 150.00 °C.
Next, `*CCOC(=O)Nc1ccc(C)c(NC(=O)OCCOc2ccc(C3(c4ccc(O*)cc4)c4ccccc4-c4ccccc43)cc2)c1` (repeat unit): 175.00 °C.
On to `*CCOc1ccc(OC(=O)c2ccc(C(=O)Oc3ccc(O*)cc3)c(OCCCCC)c2)cc1` (repeat unit), for which the glass transition temperature was determined as 95.00 °C.
As for `*N=P(*)(OCCOCCOCCOP1(OCCOCCOC)=NP(OCCOCCOC)(OCCOCCOC)=NP(OCCOCCOC)(OCCOCCOC)=N1)OCCOCCOCCOP1(OCCOCCOC)=NP(OCCOCCOC)(OCCOCCOC)=NP(OCCOCCOC)(OCCOCCOC)=N1` (repeat unit), the glass transition temperature is -38.00 °C.
In turn, `*NC(CCC(=O)OC)C(*)=O` (repeat unit) showed a glass transition temperature of 0.00 °C.
Compound `*NC(CCC(=O)OCC)C(*)=O` (repeat unit) showed a glass transition temperature of 0.00 °C.
On to `*NC(CCC(=O)OCCCCC)C(*)=O` (repeat unit), for which the glass transition temperature is -20.00 °C.
Next, `*NC(CCC(=O)OCCCCCC)C(*)=O` (repeat unit): -25.00 °C; `*Nc1cc(NC(=O)Nc2ccc(CCc3ccccc3NC(*)=O)cc2)ccc1C` (repeat unit): 227.00 °C.
Next, `*Nc1cc(NC(=O)c2cc(OCCCN(C)c3ccc(/N=N/c4ccc(S(C)(=O)=O)cc4)cc3)cc(C(*)=O)c2)cc(C(=O)OCCCN(C)c2ccc(/N=N/c3ccc(S(C)(=O)=O)cc3)cc2)c1` (repeat unit): 168.00 °C; `*Nc1cc(NC(=O)c2cc(OCCN(C)c3ccc(C#N)cc3)cc(C(*)=O)c2)cc(C(=O)OCCN(C)c2ccc(C#N)cc2)c1` (repeat unit): 167.00 °C; `*Nc1cc(NC(=O)c2ccc(-c3ccc(C(*)=O)cc3)cc2)cc(C(=O)OCCOc2ccc(/C=C/C(=O)c3ccccc3)cc2)c1` (repeat unit): 254.00 °C.
`*Nc1cc(NC(=O)c2ccc(C(*)=O)cc2)cc(C(=O)OCCOC(=O)/C=C/c2ccc(N(C)C)cc2)c1` (repeat unit) returned a glass transition temperature of 198.00 °C.
In turn, `*Nc1cc(NC(=O)c2ccc3cc(C(*)=O)ccc3c2)cc(C(=O)OCCOc2ccc(/C=C/C(=O)c3ccccc3)cc2)c1` (repeat unit) displayed a glass transition temperature of 247.00 °C.
As for `*Nc1cc(NC(=O)c2cccc(C(*)=O)c2)cc(C(=O)OCCOC(=O)/C=C/c2ccc(N(C)C)cc2)c1` (repeat unit), the glass transition temperature came to 186.00 °C.
Then `*Nc1cc(NC(=O)c2cccc(C(*)=O)c2)cc(C(=O)OCCOc2ccc(/C=C/C(=O)c3ccccc3)cc2)c1` (repeat unit), with 216.00 °C.
Next, `*Nc1cc([N+](=O)[O-])c(NC(=O)CCCCC(*)=O)cc1/C=C/c1ccc(N(C)C)cc1` (repeat unit): 206.00 °C; `*Nc1cc([N+](=O)[O-])c(NC(=O)CCCCCCC(*)=O)cc1/C=C/c1ccc(N(C)C)cc1` (repeat unit): 180.00 °C; `*Nc1ccc(NC(=O)c2ccc(NC(=O)CCCCCCCCC(=O)Nc3ccc(C(*)=O)cc3)cc2)cc1C(=O)OCCCCCCCCCCCC` (repeat unit): 228.50 °C.
In the case of `*Nc1ccc(NC(=O)c2ccc(NC(=O)CCCCCCCCC(=O)Nc3ccc(C(*)=O)cc3)cc2)cc1C(=O)OCCCCCCCCCCCCCC` (repeat unit), the glass transition temperature came out at 225.00 °C.
In turn, `*Nc1ccc(NC(=O)c2ccc(NC(=O)CCCCCCCCCCC(=O)Nc3ccc(C(*)=O)cc3)cc2)cc1C(=O)OCCCCCCCCCCCCCC` (repeat unit) displayed a glass transition temperature of 199.50 °C.
Next, `*Nc1ccc(NC(=O)c2ccc(NC(=O)CCCCCCCCCCC(=O)Nc3ccc(C(*)=O)cc3)cc2)cc1C(=O)OCCCCCCCCCCCCCCCCCC` (repeat unit): 196.50 °C; `*Nc1ccc(NC(=O)c2ccc(NC(=O)CCCCCCCCCCCCC(=O)Nc3ccc(C(*)=O)cc3)cc2)cc1C(=O)OCCCCCCCCCCCCCCCC` (repeat unit): 250.00 °C.
As for `*OC(=O)C(C)NC(=O)CCCCCCCCC(=O)NC(C)C(=O)OC1COC2C(*)COC12` (repeat unit), the glass transition temperature was determined as 57.00 °C.
Next, `*OC(=O)C(CCSC)NC(=O)CCCCCCCCC(=O)NC(CCSC)C(=O)OC1COC2C(*)COC12` (repeat unit): 61.00 °C; `*OC(=O)C(NC(=O)CCCCC(=O)NC(C(=O)OC1COC2C(*)COC12)C(C)CC)C(C)CC` (repeat unit): 102.00 °C; `*OC(=O)C(NC(=O)CCCCCCCCC(=O)NC(C(=O)OC1COC2C(*)COC12)C(C)CC)C(C)CC` (repeat unit): 91.00 °C.
Then `*OC(=O)Nc1ccc(C)c(NC(=O)OC2CCN(c3ccc(/C=C/C4=CC(=C(C#N)C#N)C=C(/C=C/c5ccc(N6CCC(*)CC6)s5)O4)s3)CC2)c1` (repeat unit), with 212.00 °C; and `*OC(C)C(=O)NC(C)C(*)=O` (repeat unit), with 57.7 °C; and `*Oc1ccc(-c2ccc(OC(=O)c3cc(CCCCC)cc(C(*)=O)c3)cc2)cc1` (repeat unit), with 138.00 °C.
Next, `*Oc1ccc(/N=C/CCC/C=N/c2ccc(OC(=O)NC3CC(C)(C)CC(C)(CNC(*)=O)C3)cc2)cc1` (repeat unit): 66.00 °C; `*Oc1ccc(C(=O)Nc2cc(C(c3ccc(C)c(NC(=O)c4ccc(OC(=O)c5cccc(C(*)=O)c5)cc4)c3)(C(F)(F)F)C(F)(F)F)ccc2C)cc1` (repeat unit): 214.00 °C; `*Oc1ccc(C(=O)Nc2cc(SCCC#N)c(NC(=O)c3ccc(*)cc3)cc2SCCC#N)cc1` (repeat unit): 158.00 °C.
In the case of `*Oc1ccc(OC(=O)c2cc(OCCCCCCCCCCCC)c(C(*)=O)cc2OCCCCCCCCCCCC)cc1-c1ccccc1` (repeat unit), the glass transition temperature amounted to 96.00 °C.
Next, `*Oc1ccc(Oc2ccc(OC(=O)c3cc(OCCCCC)cc(C(*)=O)c3)cc2)cc1` (repeat unit): 126.00 °C; `*c1ccc(C(=O)Nc2ccc(-n3c(=O)c4cc5c(=O)n(*)c(=O)c5cc4c3=O)cc2C(=O)OCC)cc1` (repeat unit): 340.00 °C; `*c1ccc(OC(=O)Nc2ccc(-c3ccc(NC(=O)Oc4ccc(-c5nc(-c6ccc(-c7nc(-c8ccc([N+](=O)[O-])cc8)c(-c8ccc([N+](=O)[O-])cc8)[nH]7)cc6)[nH]c5*)cc4)cc3OC)c(OC)c2)cc1` (repeat unit): 223.00 °C.
Then `*c1ccc(OC(=O)Nc2ccc(-c3ccc(NC(=O)Oc4ccc(-c5nc(-c6ccc([N+](=O)[O-])cc6)[nH]c5*)cc4)cc3OC)c(OC)c2)cc1` (repeat unit), with 202.00 °C.
